{
  "source": "patent US20250199015A1",
  "about": "“CYCLIN-DEPENDENT KINASE 2 INHIBITORS FOR MEDICAL TREATMENT” (INCYCLIX BIO, LLC, priority 2022, published 2025)",
  "key": {"FUOV-1 cells": {"tested_on": "FUOV-1 cells", "experiment": "CellTiter-Glo cell proliferation assay", "type": "cell-based", "conditions": "Homo sapiens, 144 h; 6 days; read-out: IC50 in FUOV1 cells", "method": "The Kuramochi human ovarian carcinoma cell line was grown in RPMI-1640/1× Glutamax/10% fetal bovine serum and the FUOV-1 human ovarian carcinoma cell line was grown in DMEM/F12/1× Glutamax/10% fetal bovine serum and both were plated at 1,000 cells/well in Corning 96 well white wall/clear bottom tissue culture treated plates. […] Plates were removed from incubator at each specified timepoint and treated with CellTiter-Glo (Promega, Inc) following manufacturer specifications. Plates were then read on CLARIOstar luminometer with 1 sec/well integration. Results were converted to Microsoft Excel and transferred to GraphPad Prism for Analysis (FIG. 16A-B)."}, "H526 cells": {"tested_on": "H526 cells", "experiment": "CellTiter Glo cell proliferation assay (single agent and chemotherapy combination)", "type": "cell-based, human", "conditions": "Homo sapiens, NCI-H526, 144 h; six days", "method": "Plates returned to incubator for six additional days. On day six post dosing, plates were removed and treated with CellTiter Glo reagent following manufacturer's specifications. Plates incubated 45 minutes at room temperature and run on a Biotek luminometer with 1 sec/well detection. Results were converted to Microsoft Excel and transferred to GraphPad Prism for analysis.\nCells were plated at 250 cells per well in white wall/clear bottom plates and incubated overnight. […] Plates returned to the incubator for six additional days. On day six post dosing, plates were removed and treated with CellTiter Glo reagent following manufacturer's specifications. Plates incubated 45 minutes at room temperature and run on a Biotek luminometer with 1 sec/well detection. Results were converted to Microsoft Excel and transferred to GraphPad Prism for analysis.\n(§1) Dose curves ranged from 300 pM to 10 μM in triplicate and treatments lasted for 6 days. Plates were removed from incubator at each specified timepoint and treated with CellTiter-Glo (Promega, Inc) following manufacturer specifications. Plates were then read on CLARIOstar luminometer with 1 sec/well integration.\nas §1, with “integration. Results were converted to Microsoft Excel and transferred to GraphPad Prism for Analysis.” for “integration.”"}, "OVCAR-3 cells [1]": {"tested_on": "OVCAR-3 cells", "experiment": "Cell cycle by EdU flow cytometry (dose, time, washout, tracing)", "type": "cell-based, human", "conditions": "600 nM", "method": "Cells were plated at 100,000 cells/well in Corning 6 cm tissue culture treated plates. […] Cells were collected and fixed in 1% paraformaldehyde. Cells were incubated with Alexa488 azide dye as described by Thermo Scientific. Cells were then incubated with Fxcycle-violet and RNase. Cells were analyzed on a BD Celesta and data compiled using FloJo and GraphPad.\nThe OVCAR3 human ovarian carcinoma cell line was grown in RPMI-1640/1× Glutamax/1× Insulin/10% fetal bovine serum and was plated at 300,000 cells/well in Corning 6 cm tissue culture treated plates. […] Cells were treated for the indicated amount of time (24 hours or 48 hours), with 10 μM EdU added for the last hour of treatment. Cells were collected and fixed in 1% paraformaldehyde. Cells were incubated with Alexa 488 (A488) azide dye as described by Thermo Scientific. Cells were then incubated with FarRed dye and RNase. Cells were analyzed on a BD Celesta and data compiled using FloJo and GraphPad Prism (FIG. 13A-B).\nThe OVCAR3 human ovarian carcinoma cell line was grown in RPMI-1640/1× Glutamax/1× Insulin/10% fetal bovine serum and was plated at 300,000 cells/well in Corning 6 cm tissue culture treated plates. […] At 24 hours, the remaining plates were rinsed with media before un-treated media was added back. Cells were collected at the indicated times, with 10 μM EdU added for the last hour (FIG. 14A). Cells were collected and fixed in 1% paraformaldehyde. Cells were incubated with Pacific blue azide dye as described by Thermo Scientific. Cells were then incubated with FarRed dye and RNase. Cells were analyzed on a BD Celesta and data compiled using FloJo and GraphPad. […] By 18 hours, OVCAR-3 cells were in G2 or reentering G1. Cells appeared to remain somewhat synchronized over 48 hours.\nThe OVCAR3 human ovarian carcinoma cell line was grown in RPMI-1640/1× Glutamax/1× Insulin/10% fetal bovine serum and was plated at 300,000 cells/well in Corning 6 cm tissue culture treated plates. […] Cells were divided into two sets. The first set was treated for the indicated amount of time, with 10 μM EdU added for the last hour of treatment before being collected. The second set of cells were treated for the indicated amount of time and had EdU added for one hour before the timepoint. Then the media was aspirated, the cells washed, and re-treated with treatment media. The second set of cells was collected at 48 hours, allowing for tracing of the EdU positive cells. Cells were collected and fixed in 1% paraformaldehyde. Cells were incubated with Alexa 488 (A488) azide dye as described by Thermo Scientific. Cells were then incubated with FarRed dye and RNase. Cells were analyzed on a BD Celesta and data compiled using FloJo and GraphPad. […] Several “snap shots” of cells at various timepoints, followed by where the cells from S phase ended up at the end of 48 hours of treatment, were collected. […] It appears that the cells in S phase at after 6 hours of treatment are arresting in G1 (FIG. 15B). At 24 hours of treatment, little to no cells were in S phase so there were no cells to trace (FIG. 15C). Although the DMSO sample appears largely different at 48 hours, the distribution appears similar to the DMSO, EdU free cells at 48 hours. […] (FIG. 15D)."}, "[2]": {"tested_on": "caspase 3/7 in H526 cells", "experiment": "CaspaseGlo-3/7 activation", "type": "cell-based, human", "conditions": "for IC50: Homo sapiens", "method": "(§2) Plates were removed from incubator and treated with CaspaseGlo-3/7 (Promega, Inc) following manufacturer specifications. Plates were then read on a Biotech luminometer with 1 sec/well integration. Results were converted to Microsoft Excel and transferred to GraphPad Prism for Analysis (FIG. 22D).\nas §2, with “from the” for “from”, “incubator at each specified timepoint” for “incubator”, “on” for “on a”, “27A-C).” for “22D).”"}, "OVCAR-3 cells [3]": {"tested_on": "OVCAR-3 cells", "experiment": "CellTiter Glo cell proliferation assay", "type": "cell-based, human", "conditions": "Homo sapiens, OVCAR-3, 144 h; six days", "method": "Plates were returned to the incubator for six additional days. On day six post dosing, plates were removed and treated with CellTiter Glo reagent following manufacturer's specifications. Plates were incubated 45 minutes at room temperature and run on Biotek luminometer with 1 sec/well detection. Results were converted to Microsoft Excel and transferred to Graphpad Prism for analysis. […] These cell types are distinguished by either gained of cyclin E1 expression or activation (Kuramochi) or intrinsic amplification of cyclin E1 (OVCAR-3, COV318).\nIn a similar manner, OVCAR-3 cells were grown in RPMI-1640, 1× Glutamax, 10% FBS and 1×ITS at 37° C., 5% CO2. Cells were plated at 500 cells per well in white wall/clear bottom plates and incubated overnight. […] Plates returned to incubator for six additional days. On day six post dosing, plates were removed and treated with CellTiter Glo reagent following manufacturer's specifications. Plates were incubated 45 minutes at room temperature and run on Biotek luminometer with 1 sec/well detection. Results were converted to Microsoft Excel and transferred to GraphPad Prism for analysis."}},
  "data": [
    {"smiles": "COCc1cc(C(=O)Nc2cc([C@H]3CC[C@@H](OC(=O)NC(C)C)C3)[nH]n2)n(C)n1", "note": "[PF-07104091, reference compound]", "values": [
      {"measurement": "IC50", "setting": "FUOV-1 cells", "value": 80, "unit": "nM"},
      {"measurement": "IC50", "setting": "H526 cells", "value": 305, "unit": "nM"},
      {"measurement": "G1 arrest over 48 h", "setting": "OVCAR-3 cells [1]", "value": "appears to hold cells in G1 over 48 hours"},
      {"measurement": "caspase 3/7 activation", "setting": "[2]; 24 hours", "value": "no appreciable caspase 3/7 activation"},
      {"measurement": "IC50", "setting": "[2]; NCI-H526, 48 h, 48 hours", "value": 1250, "unit": "nM"},
      {"measurement": "IC50", "setting": "[2]; NCI-H526, 72 h, 72 hours", "value": 495, "unit": "nM"},
      {"measurement": "IC50", "setting": "OVCAR-3 cells [3]", "value": 294, "unit": "nM"}
    ]}
  ]
}
